Test results from ChEMBL document CHEMBL1201862, “PubChem BioAssay data set” (2004).
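Tested at 5 concentrations; 48 h exposure; 96-well plates; endpoints linearly interpolated, else capped at highest concentration. GI50 = concentration required for 50% inhibition of growth.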 Calls of active or inactive are those of the source. No stated cut-off is given here; in the data, active = GI50 up to about 1.1 µM and inactive = higher.

How the values were obtained:
Assay in all cases: growth of human tumour cells (NCI), 48 h
MCF7 = test system: MCF7
NCI-H522 = test system: NCI-H522
SK-OV-3 = test system: SK-OV-3
MDA-MB-435 = test system: MDA-MB-435
HT-29 = test system: HT-29
Hs-578T = test system: Hs-578T
CAKI-1 = test system: CAKI-1
HCC 2998 = test system: HCC 2998
NCI/ADR-RES = test system: NCI/ADR-RES
786-0 = test system: 786-0
MOLT-4 = test system: MOLT-4
RPMI-8226 = test system: RPMI-8226
SF-539 = test system: SF-539
HOP-92 = test system: HOP-92
U-251 = test system: U-251
SR = test system: SR
OVCAR-3 = test system: OVCAR-3
SN12C = test system: SN12C
SF-268 = test system: SF-268
MDA-N = test system: MDA-N
TK-10 = test system: TK-10
OVCAR-8 = test system: OVCAR-8
HCT-116 = test system: HCT-116
T47D = test system: T47D
BT-549 = test system: BT-549
SK-MEL-5 = test system: SK-MEL-5
COLO 205 = test system: COLO 205
SK-MEL-2 = test system: SK-MEL-2
IGROV-1 = test system: IGROV-1
HL-60 = test system: HL-60
A549 = test system: A549
PC-3 = test system: PC-3
SW-620 = test system: SW-620
EKVX = test system: EKVX
K562 = test system: K562
OVCAR-5 = test system: OVCAR-5
LOX IMVI = test system: LOX IMVI
KM12 = test system: KM12
OVCAR-4 = test system: OVCAR-4
NCI-H226 = test system: NCI-H226
UACC-62 = test system: UACC-62
SNB-75 = test system: SNB-75
DU-145 = test system: DU-145
RXF 393 = test system: RXF 393
HOP-62 = test system: HOP-62
HCT-15 = test system: HCT-15
UO-31 = test system: UO-31
CCRF-CEM = test system: CCRF-CEM
SK-MEL-28 = test system: SK-MEL-28
Malme-3M = test system: Malme-3M
SNB-19 = test system: SNB-19
MDA-MB-231 = test system: MDA-MB-231
UACC-257 = test system: UACC-257
M14 = test system: M14
SF-295 = test system: SF-295
ACHN = test system: ACHN
NCI-H460 = test system: NCI-H460
A498 = test system: A498
NCI-H23 = test system: NCI-H23

CN/C(=N\N)NS(=O)(=O)c1cc(C)c(Cl)cc1S
GI50 (MCF7): 62.4 µM (inactive) | GI50 (NCI-H522): 25.2 µM (inactive) | GI50 (SK-OV-3): > 100 µM (inactive) | GI50 (MDA-MB-435): 43.5 µM (inactive) | GI50 (HT-29): 40.4 µM (inactive) | GI50 (Hs-578T): 20.6 µM (inactive) | GI50 (CAKI-1): 45.8 µM (inactive) | GI50 (HCC 2998): 87.7 µM (inactive) | GI50 (NCI/ADR-RES): > 100 µM (inactive) | GI50 (786-0): 27.3 µM (inactive) | GI50 (MOLT-4): > 10 µM (inactive) | GI50 (RPMI-8226): 74 µM (inactive) | GI50 (SF-539): > 100 µM (inactive) | GI50 (HOP-92): 75.2 µM (inactive) | GI50 (U-251): 64.1 µM (inactive) | GI50 (SR): 44 µM (inactive) | GI50 (OVCAR-3): 57.5 µM (inactive) | GI50 (SN12C): > 100 µM (inactive) | GI50 (SF-268): > 100 µM (inactive) | GI50 (MDA-N): > 100 µM (inactive) | GI50 (TK-10): 77.4 µM (inactive) | GI50 (OVCAR-8): 96.2 µM (inactive) | GI50 (HCT-116): 66.5 µM (inactive) | GI50 (T47D): 24.4 µM (inactive) | GI50 (BT-549): 38.5 µM (inactive) | GI50 (SK-MEL-5): 30.7 µM (inactive) | GI50 (COLO 205): > 100 µM (inactive) | GI50 (SK-MEL-2): 69.2 µM (inactive) | GI50 (IGROV-1): 86.3 µM (inactive) | GI50 (HL-60): 41.5 µM (inactive) | GI50 (A549): 29.9 µM (inactive) | GI50 (PC-3): > 100 µM (inactive) | GI50 (SW-620): 48.5 µM (inactive) | GI50 (EKVX): 81.7 µM (inactive) | GI50 (K562): 49.2 µM (inactive) | GI50 (OVCAR-5): 93.5 µM (inactive) | GI50 (LOX IMVI): 96.4 µM (inactive) | GI50 (KM12): 76 µM (inactive) | GI50 (OVCAR-4): > 100 µM (inactive) | GI50 (NCI-H226): > 100 µM (inactive) | GI50 (UACC-62): 53.7 µM (inactive) | GI50 (SNB-75): > 100 µM (inactive) | GI50 (DU-145): > 100 µM (inactive) | GI50 (RXF 393): 33.4 µM (inactive) | GI50 (HOP-62): > 100 µM (inactive) | GI50 (HCT-15): 48.2 µM | GI50 (UO-31): 25.1 µM (inactive) | GI50 (CCRF-CEM): 43.6 µM (inactive) | GI50 (SK-MEL-28): > 100 µM (inactive) | GI50 (Malme-3M): 46.8 µM (inactive) | GI50 (SNB-19): > 100 µM (inactive) | GI50 (MDA-MB-231): > 100 µM (inactive) | GI50 (UACC-257): > 100 µM (inactive) | GI50 (M14): 54.5 µM (inactive)

CNN1C(=O)c2c(C)c(C)c(C#N)c(N)c2C1=O
GI50 (MCF7): > 100 µM (inactive) | GI50 (NCI-H522): > 100 µM (inactive) | GI50 (MDA-MB-435): > 100 µM (inactive) | GI50 (SF-295): > 100 µM (inactive) | GI50 (Hs-578T): > 100 µM (inactive) | GI50 (CAKI-1): > 100 µM (inactive) | GI50 (HCC 2998): > 100 µM (inactive) | GI50 (NCI/ADR-RES): > 100 µM (inactive) | GI50 (786-0): > 100 µM (inactive) | GI50 (MOLT-4): > 100 µM (inactive) | GI50 (RPMI-8226): > 100 µM (inactive) | GI50 (SF-539): > 100 µM (inactive) | GI50 (HOP-92): > 100 µM (inactive) | GI50 (U-251): > 100 µM (inactive) | GI50 (SR): > 100 µM (inactive) | GI50 (OVCAR-3): > 100 µM (inactive) | GI50 (SN12C): > 100 µM (inactive) | GI50 (ACHN): > 100 µM (inactive) | GI50 (SF-268): > 100 µM (inactive) | GI50 (MDA-N): > 100 µM (inactive) | GI50 (TK-10): > 100 µM (inactive) | GI50 (OVCAR-8): > 100 µM (inactive) | GI50 (HCT-116): > 100 µM (inactive) | GI50 (T47D): > 100 µM (inactive) | GI50 (BT-549): > 100 µM (inactive) | GI50 (SK-MEL-5): > 100 µM (inactive) | GI50 (COLO 205): > 100 µM (inactive) | GI50 (SK-MEL-2): > 100 µM (inactive) | GI50 (IGROV-1): > 100 µM (inactive) | GI50 (HL-60): > 100 µM (inactive) | GI50 (A549): > 100 µM (inactive) | GI50 (PC-3): > 100 µM (inactive) | GI50 (SW-620): > 100 µM (inactive) | GI50 (EKVX): > 100 µM (inactive) | GI50 (K562): > 100 µM (inactive) | GI50 (OVCAR-5): > 100 µM (inactive) | GI50 (LOX IMVI): > 100 µM (inactive) | GI50 (KM12): > 100 µM (inactive) | GI50 (OVCAR-4): > 100 µM (inactive) | GI50 (NCI-H226): > 100 µM (inactive) | GI50 (NCI-H460): > 100 µM (inactive) | GI50 (UACC-62): > 100 µM (inactive) | GI50 (SNB-75): 83.2 µM (inactive) | GI50 (DU-145): > 100 µM (inactive) | GI50 (RXF 393): 40.8 µM (inactive) | GI50 (HCT-15): > 100 µM | GI50 (UO-31): > 100 µM (inactive) | GI50 (CCRF-CEM): > 100 µM (inactive) | GI50 (SK-MEL-28): > 100 µM (inactive) | GI50 (Malme-3M): > 100 µM (inactive) | GI50 (SNB-19): > 100 µM (inactive) | GI50 (MDA-MB-231): > 100 µM (inactive) | GI50 (UACC-257): > 100 µM (inactive) | GI50 (M14): > 100 µM (inactive)

CCOC(=O)C1=C(C)NC(=O)N([N+](=O)[O-])C1c1ccccc1C(F)(F)F (stereo unspecified)
GI50 (MCF7): 52.6 µM (inactive) | GI50 (SK-OV-3): > 100 µM (inactive) | GI50 (MDA-MB-435): 45.1 µM (inactive) | GI50 (HT-29): 75.2 µM (inactive) | GI50 (SF-295): 57.7 µM (inactive) | GI50 (Hs-578T): 70.3 µM (inactive) | GI50 (CAKI-1): 23.1 µM (inactive) | GI50 (NCI/ADR-RES): 34.1 µM (inactive) | GI50 (MOLT-4): > 100 µM (inactive) | GI50 (RPMI-8226): 23.4 µM (inactive) | GI50 (SF-539): 28 µM (inactive) | GI50 (HOP-92): > 100 µM (inactive) | GI50 (U-251): 69 µM (inactive) | GI50 (SR): 31.8 µM (inactive) | GI50 (OVCAR-3): 47.5 µM (inactive) | GI50 (SN12C): > 100 µM (inactive) | GI50 (ACHN): > 100 µM (inactive) | GI50 (SF-268): 53.1 µM (inactive) | GI50 (MDA-N): 21.8 µM (inactive) | GI50 (TK-10): 98.2 µM (inactive) | GI50 (OVCAR-8): 69.7 µM (inactive) | GI50 (HCT-116): 35.7 µM (inactive) | GI50 (T47D): 35.4 µM (inactive) | GI50 (BT-549): 54.6 µM (inactive) | GI50 (SK-MEL-5): 42.3 µM (inactive) | GI50 (COLO 205): > 100 µM (inactive) | GI50 (SK-MEL-2): > 100 µM (inactive) | GI50 (IGROV-1): > 100 µM (inactive) | GI50 (HL-60): 55.2 µM (inactive) | GI50 (A549): > 100 µM (inactive) | GI50 (PC-3): 33.3 µM (inactive) | GI50 (SW-620): 52.6 µM (inactive) | GI50 (K562): 72.6 µM (inactive) | GI50 (OVCAR-5): > 100 µM (inactive) | GI50 (LOX IMVI): 31 µM (inactive) | GI50 (OVCAR-4): 27.2 µM (inactive) | GI50 (NCI-H226): > 100 µM (inactive) | GI50 (NCI-H460): > 100 µM (inactive) | GI50 (UACC-62): 49.4 µM (inactive) | GI50 (A498): > 100 µM (inactive) | GI50 (DU-145): 94.2 µM (inactive) | GI50 (NCI-H23): > 100 µM (inactive) | GI50 (RXF 393): 61 µM (inactive) | GI50 (HOP-62): 70.6 µM (inactive) | GI50 (HCT-15): 55.2 µM | GI50 (UO-31): > 100 µM (inactive) | GI50 (CCRF-CEM): 26.6 µM (inactive) | GI50 (SK-MEL-28): 24.8 µM (inactive) | GI50 (Malme-3M): 24.3 µM (inactive) | GI50 (SNB-19): > 100 µM (inactive) | GI50 (MDA-MB-231): > 100 µM (inactive) | GI50 (UACC-257): > 100 µM (inactive) | GI50 (M14): 43.5 µM (inactive)
